According to patent US12479812B2, “Fatty acid derivatives and their use” (THE UNITED STATES OF AMERICA, as represented by the …, priority 2017, dated 2025):

Legend:
[1] = test system: human THP-1 cells; test: ApoA1 cholesterol efflux screen in THP-1 cells; type: cell-based; conditions: 50 μM; THP-1 cells incubated with ApoA1
Description: Human THP-1 cells were incubated with ApoA1 in the presence of linoleic acid or several different fatty acid derivatives (50 μM) in a blinded manner, and resulting cholesterol efflux was measured (FIG. 9) as previously described (PMID: 26879139).

[2] = Incubation under esterification conditions (glycerol on silica gel, 3 days), LC-MS; type: physicochemical; conditions: for esterification with glycerol: free acid in ether with glycerol-coated silica gel, 3 days; for internal lactonization: under the esterification conditions
Description: • A: 10 mM NH4OAc, pH 7.4 • B: Acetonitrile+0.1% formic acid • 0-1.50 min: 5% B • 1.50-2 min: 5-90% B • 2-10 min: 90% B • 10.01-15 min: 5% B • DAD1 254 nm • DAD2 215 nm • Agilent Zorbax XDB-C18 5 μm C18 50×2.0 mm • 0.4 ml/min MS Parameters: Agilent 6120 with Electrospray Ionization • Drying gas flow: 11.0 L/min • Nebulizer pressure: 40 psig • Drying gas temperature: 350 C • Positive capillary voltage: 4000 V • Negative capillary voltage: 3000 V
Approximately 30 mg of silica gel was added to 25 mg of glycerol, and it was then vortexed to coat all of the silica with glycerol, until the admixture was free-flowing. Between 5-10 mg of this material was added to a solution of the free acid in ether, and it was vortexed briefly. The reaction was left for 3 days, then filtered and evaporated under nitrogen. The residue was redissolved in ethanol and analyzed by LC-MS, in both positive and negative modes.

[3] = test system: adult rat dorsal root ganglia (DRG) neurons; test: Ex vivo CGRP release assay in adult rat sensory neuronal cultures; type: cell-based; conditions: 1 μM; for capsaicin-evoked CGRP release: 30 nM capsaicin; for low-pH-evoked CGRP release: buffer pH adjusted to 6.0
Description: For release experiments, the work was approved by the Animal Care and Use Committee at Indiana University School of Medicine, Indianapolis, IN. Adult rat sensory neuronal cultures were prepared as previously described (Burkey, Hingtgen, and Vasko, Methods in molecular medicine 99, 189, 2004; Kelley et al., PloS one 9, e106485, 2014). Cells were maintained for 10-12 days in F-12 media (Invitrogen, Carlsbad, CA) supplemented with 10% horse serum, 2 mM glutamine, 100 μg/ml normocin™, 50 μg/ml penicillin, 50 μg/ml streptomycin, 50 μM 5-fluoro-2′-deoxyuridine (Invitrogen), 150 μM uridine, and 30 ng/ml of NGF (Harlan Bioproducts for Science, Inc. Indianapolis, IN) in 3% CO2 at 37° C. On the day of the release experiments, cultures were washed with HEPES buffer (25 mM HEPES, 135 mM NaCl, 3.5 mM KCl, 2.5 mM CaCl2, 1 mM MgCl2, 3.3 mM D-glucose, and 0.1% bovine serum albumin, pH 7.4 and maintained at 37° C. Cultures were then incubated with 0.4 ml of the same buffer in the absence or presence of drugs. Basal release was determined by exposing the cells to HEPES buffer alone for 10 min, then to buffer in the presence of mediators for 10 min to ascertain if the compounds stimulated release. Cultures were then exposed to buffer containing 30 nM capsaicin or buffer with the pH adjusted to 6.0 in the absence or presence of mediators. Cells then were re-exposed to HEPES buffer without drugs for a 10 min incubation to reestablish basal release. After each incubation, the buffer was removed to measure the amount of CGRP using radioimmunoassay as previously described (Chen et al., Peptides 17, 31, 1996). At the end of each release experiment, cells were hypotonically lysed by exposing the cultures to 0.1 M HCl for 10 min and an aliquot taken to measure total CGRP content in the cultures using radioimmunoassay. […] Release data are presented in fmol/well of cell/10 min from three independent experiments from separate harvests. Statistical analysis was performed using ANOVA with Tukey's post hoc test.

[4] = test system: female mice (C57BL/6J); test: Pruriceptive (itch) behavior, scratching bouts after intradermal injection into nape of neck; type: in vivo, mouse; conditions: for itch-related scratching behavior compared to vehicle: 100 μg (mixture 100 μg of each) intradermal, n=6-8 per group, 30 minutes; for onset of scratching responses (significantly greater than vehicle) / time of maximum scratching response: 9K-12,13E-LA 100 μg, histamine 50 μg; for scratching bouts compared to vehicle, pilot testing: n=3 per group, first 30 minutes after intradermal injection
Description: Hydroxy- and keto-epoxide derivatives of LA (100 μg) or histamine (50 μg) were injected intra-dermally into the nape of neck of the female mice (C57BL/6J from Jackson Laboratory). LA derivatives (9-keto-12,13-epoxy-(10E)-octadecenoate or 13-keto-9,10-epoxy-(11E)-octadecenoate) were injected independently, and in combination (9-keto-12,13-epoxy-(10E)-octadecenoate plus 13-keto-9,10-epoxy-(11E)-octadecenoate (100 μg of each)). Pruriceptive behavior was quantified as the number of scratching bouts assessed over 30 minutes, as previously described (Mishra and Hoon, Science 340, 968, 2013).

[5] = test system: normal mice or a mast cell knock-out mouse; test: Itch-related scratching in normal and mast cell knock-out mice; type: in vivo; conditions: 100 μg intradermal; 30 minutes
Description: The fatty acid derivative 9K-12,13E-LA (100 μg) was injected intra-dermally into the nape of neck of normal mice or a mast cell knock-out mouse (FIG. 8) in a blinded manner. Pruriceptive behavior was quantified as the number of scratching bouts assessed over 30 minutes, as previously described (Mishra and Hoon, Science 340, 968, 2013).

[6] = test system: murine trigeminal sensory neurons; test: Ca2+ responses in cultured trigeminal sensory neurons; type: cell-based, mouse; conditions: FIG. 7B
Description: Additionally, murine trigeminal sensory neurons were isolated and cultured in vitro. Fatty acid derivatives were applied to the cultured neurons and any resulting Ca^2+ response was measured in a blinded manner. The assayed compounds include: 11H-12,13E-LA (Compound 1), 11K-12,13E-LA (Compound 2), 11H-9,10E-LA (Compound 3), and 11K-9,10E-LA (Compound 4).

[7] = test system: male Sprague-Dawley rats; test: Nociceptive (pain) behavior after intradermal hindpaw injection; type: in vivo, rat; conditions: for decrease of C-fiber withdrawal latencies: after intradermal hindpaw injection (11H-12,13E-LA 30 μg), versus vehicle
Description: 11-hydroxy-12,13-trans-epoxy-(9Z)-octadecenoate (30 μg) was injected intradermally into the hindpaw of male Sprague-Dawley rats. Baseline measurements were taken for all tests prior to injection. A-delta and C-fiber mediated hindpaw withdrawal responses were measured as previously described (Mitchell et al., Pain 155, 733, 2014). Briefly, by stimulation of the plantar surface of the paw with a 100 ms laser pulse, producing a rapid withdrawal response. Laser pulses were delivered by an infrared diode laser (LASS-10 M; Lasmed, Mountain View, CA, USA) and calibrated to 3500 mA at 0.5 mm diameter, and delivered from 1 cm distance, C-fiber mediated responses were measured by delivery of a slow temperature ramp to the plantar surface of the hindpaw, with stimulus termination by voluntary withdrawal of the paw. The laser stimulus was adjusted to result in an approximately 10 second withdrawal latency (1000 mA, 13 cm distance).

[8] = test system: freshly isolated human PBMCs; test: ApoA1 cholesterol efflux screen in freshly isolated PBMCs; type: cell-based; conditions: 50 μM
[9] = test system: tumor necrosis factor (TNF)-alpha secretion, human PBMCs; test: PBMC cytokine secretion (ELISA): TNF-alpha; type: cell-based; conditions: 100 μM, 24 hours; for LPS-induced TNF-alpha secretion: LPS pre-incubation; for native TNF-alpha secretion: no LPS
Description: (§1) Freshly isolated human PBMCs were pre-incubated (FIGS. 11A and 11C) or not (FIGS. 11B and 11D) with LPS, and then incubated with ferulic acid (“FA,” 100 μM) and 11H-12,13E-LA, 11K-12,13E-LA, PBS, or LPS alone for 24 hours (blinded). Then, the medium concentration of TNF-alpha (FIGS. 11A and 11B) or […] (FIGS. 11C and 11D) was measured using enzyme-linked immunosorbent assay.

[10] = test system: interleukin (IL)-1, human PBMCs; test: PBMC cytokine secretion (ELISA): IL-1; type: cell-based; conditions: 100 μM; with or without LPS; 24 hours
Description: as §1

9-hydroxy-octadecadienoic acid [reference compound]
ApoA1-mediated monocyte cholesterol efflux [1]: increased

CC/C=C\C/C=C\C/C=C\C/C=C\C/C=C\C=C\C(O)CC(C)(C)C(=O)O (centres unmarked) [2,2-dimethyl-4-hydroxy-DHA]
esterification with glycerol [2]: resistant to esterification, including internal lactonization | internal lactonization [2]: did not lactonize

CCCCCC(O)/C=C/C1OC1CCCCCCC(C)(C)C(=O)O (stereo not drawn) [2,2-dimethyl-13-hydroxy-9,10-trans-epoxy-(11E)-octadecenoic acid]
esterification with glycerol [2]: resistant to esterification

CC/C=C\C/C=C\C/C=C\C/C=C\C/C=C\C=C\C(O)CC(C)C(=O)O (centres unmarked) [2-methyl-4-hydroxy-DHA]
esterification with glycerol [2]: resistant to glycerol esterification | internal lactonization [2]: competitive lactonization

CC/C=C\C/C=C\C/C=C\C/C=C\C/C=C\C=C\C(O)CCC(=O)O (centres unmarked) [4-hydroxy-DHA, reference compound]
internal lactonization [2]: rapidly undergoes internal lactonization

CCCCCC1OC1/C=C/C(O)CCCCCCCC(=O)O (stereo not drawn) [9H-12,13E-LA, 9-hydroxy(H)-12,13-trans-epoxy-(E)-octadecenoate]
capsaicin-evoked CGRP release [3]: Neither 9H-12,13E-LA, nor any of the tested keto-epoxy-octadecenoates, augmented | low-pH-evoked CGRP release [3]: Neither 9H-12,13E-LA, nor any of the tested keto-epoxy-octadecenoates, augmented

CCCCCC1OC1/C=C/C(=O)CCCCCCCC(=O)O (stereo not drawn) [9K-12,13E-LA, 9-keto(K)-12,13-trans-epoxy-(E)-octadecenoate]
itch-related scratching behavior compared to vehicle [4]: induced itch-related scratching behavior | onset of scratching responses (significantly greater than vehicle) [4]: slower onset | time of maximum scratching response [4]: 10 to 15 min | scratching bouts compared to vehicle, pilot testing [4]: appeared to increase scratching bouts | scratching responses in mast cell knockout mice [5]: increased scratching responses | scratching responses in wild type mice [5]: increased scratching responses

CCCCC/C=C\C(O)C1OC1CCCCCCCC(=O)O (stereo not drawn) [11H-9,10E-LA, 11-hydroxy(H)-9,10-trans-epoxy-(E)-octadecenoate]
capsaicin-evoked CGRP release [3]: significantly augmented | low-pH-evoked CGRP release [3]: significantly augmented | number of trigeminal cells responding, concentration-response [6]: increase in the number of cells responding

CCCCCC1OC1C(O)/C=C\CCCCCCCC(=O)O (stereo not drawn) [11H-12,13E-LA, 11-hydroxy(H)-12,13-trans-epoxy-(E)-octadecenoate]
capsaicin-evoked CGRP release [3]: significantly augmented | low-pH-evoked CGRP release [3]: significantly augmented | decrease of C-fiber withdrawal latencies [7]: 28% | number of trigeminal cells responding, concentration-response [6]: increase in the number of cells responding | ApoA1-mediated monocyte cholesterol efflux [1]: inhibited | ApoA1-mediated monocyte cholesterol efflux [8]: inhibited | LPS-induced TNF-alpha secretion [9]: inhibits | native TNF-alpha secretion [9]: inhibits | IL-1 secretion [10]: has no effect

CCCCCC1OC1C(=O)/C=C\CCCCCCCC(=O)O (stereo not drawn) [11K-12,13E-LA, 11-keto(K)-12,13-trans-epoxy-(E)-octadecenoate]
ApoA1-mediated monocyte cholesterol efflux [1]: inhibited | ApoA1-mediated monocyte cholesterol efflux [8]: inhibited | LPS-induced TNF-alpha secretion [9]: inhibits | native TNF-alpha secretion [9]: inhibits | IL-1 secretion [10]: has no effect

CCCCCC(O)/C=C/C1OC1CCCCCCCC(=O)O (stereo not drawn) [13H-9,10E-LA, 13-hydroxy(H)-9,10-trans-epoxy-(E)-octadecenoate]
capsaicin-evoked CGRP release [3]: had no effect | low-pH-evoked CGRP release [3]: significantly augmented

CCCCCC(=O)/C=C/C1OC1CCCCCCCC(=O)O (stereo not drawn) [13K-9,10E-LA, 13-keto(K)-9,10-trans-epoxy-(E)-octadecenoate]
itch-related scratching behavior compared to vehicle [4]: no response | scratching bouts compared to vehicle, pilot testing [4]: appeared to increase scratching bouts

CCCCC/C=C\C/C=C\CCCCCCCC(=O)O [Linoleic acid, reference compound]
ApoA1-mediated monocyte cholesterol efflux [1]: increased cholesterol efflux

CCCCC[C@H](O)/C=C/[C@H]1[C@H](O)CC(=O)[C@@H]1C/C=C\CCCC(=O)O [PGE2, prostaglandin E2, reference compound]
direct stimulation of CGRP release ([3]; neutral pH): neither PGE2 nor any of the other tested compounds directly stimulated | capsaicin-evoked CGRP release [3]: significantly augmented | low-pH-evoked CGRP release [3]: significantly augmented | proportion of withdrawal responses following Aδ fiber laser stimulation ([7]; after intradermal hindpaw injection): significantly enhanced | decrease of C-fiber withdrawal latencies [7]: 46%

NCCc1c[nH]cn1 [histamine, reference compound]
onset of scratching responses (significantly greater than vehicle) [4]: ≤ 5 min | time of maximum scratching response [4]: 5 to 10 min
